# From US6239171A, “Tocotrienols and tocotrienol-like compounds and methods for their use” (Lipogenics, Inc., priority 1998, dated 2001)
# Assays:
# [1] = biological target: T1, HMG-CoA reductase (Sus scrofa, UniProt Q1W675); test: Hepatic HMG-CoA reductase activity in hypercholesterolemic swine; assay type: in vivo; details: control diet + 50 ppm
# T1 construct: The hepatic enzymatic activity of the HMG-CoA reductase decreased approximately 30%; from tissue; host or cells: pig liver, microsomes
# T1 sequence (Q1W675 1-885): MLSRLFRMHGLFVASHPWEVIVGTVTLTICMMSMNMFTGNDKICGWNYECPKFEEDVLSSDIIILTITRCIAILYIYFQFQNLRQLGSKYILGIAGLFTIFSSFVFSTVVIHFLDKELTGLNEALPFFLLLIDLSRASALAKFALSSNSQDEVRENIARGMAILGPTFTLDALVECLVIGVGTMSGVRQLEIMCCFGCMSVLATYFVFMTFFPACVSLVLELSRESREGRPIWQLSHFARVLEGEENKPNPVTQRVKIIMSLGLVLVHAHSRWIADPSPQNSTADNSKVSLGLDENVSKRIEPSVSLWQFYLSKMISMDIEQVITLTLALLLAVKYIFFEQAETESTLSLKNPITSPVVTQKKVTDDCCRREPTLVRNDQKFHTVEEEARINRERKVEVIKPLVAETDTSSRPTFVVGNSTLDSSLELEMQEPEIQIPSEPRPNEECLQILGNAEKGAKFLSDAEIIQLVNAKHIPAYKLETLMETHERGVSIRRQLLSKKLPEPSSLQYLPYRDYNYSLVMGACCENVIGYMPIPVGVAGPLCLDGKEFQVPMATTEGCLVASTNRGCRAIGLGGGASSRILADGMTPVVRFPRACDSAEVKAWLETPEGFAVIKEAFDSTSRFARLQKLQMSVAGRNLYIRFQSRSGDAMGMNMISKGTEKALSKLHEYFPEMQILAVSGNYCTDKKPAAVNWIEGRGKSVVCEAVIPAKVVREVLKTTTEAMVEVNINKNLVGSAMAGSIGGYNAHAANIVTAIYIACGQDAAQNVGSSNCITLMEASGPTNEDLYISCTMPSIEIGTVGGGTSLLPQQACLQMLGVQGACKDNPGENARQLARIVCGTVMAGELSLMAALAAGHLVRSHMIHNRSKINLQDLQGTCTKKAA
# Source text: (§1) All assays conducted on chicken or swine serum were done following the protocols described in A. A. Qureshi et al., "Lowering Of Serum Cholesterol In Hypercholesterolemic Humans By Tocotrienols" (Palmvitee), Am. J. Clin. Nutr., 53, pp. 1021S-26S (1991). All enzymatic assays were done following the protocols described in A. A. Qureshi et al., "Effects of Cereals and Culture Filtrate of Trichoderma viride on Lipid Metabolism of Swine", Lipids, 17, pp. 924 (1982). Plasma insulin, glucagon and TNF levels were measured using radioinnumoassay kits from Ventrex Laboratories, Inc. (Portland, Me.), ICN Biomedicals, Inc. (Costa Mesa, Calif.) and Genzyme Corp. (Cambridge, Mass.), respectively.
# (§2) We next measured the effects of various tocotrienols from rice bran on HMG-CoA reductase and cholesterol 7α-hydroxylase in hypercholesterolemic swine. Since pigs are very similar to humans in their cholesterol metabolism, they provide a useful model from which to study hypercholesterolemia and related diseases. […] The serum cholesterol concentration in these swine is typically above 300-500 mg/dl, as compared to 120-160 mg/dl in normal adult swine. As a result, the pigs develop complicated atherosclerotic plaques that closely resemble advanced atherosclerotic lesions found in humans.
# (§3) Each group of three 5-month old swine was administered either a control diet or a control diet supplemented with 50 ppm of TRF or 50 ppm of an individual tocotrienol. The samples were prepared as described in Example 11. After a 12 hour fast, serum and plasma samples were taken a 0 hrs, 21 days and 42 days from the start of the feeding period. After taking serum and plasma samples from the pigs at the end of the 42 day period, all of the swine were fasted for a total of 40 hours, followed by a 48 hour refeeding period. One swine from each group was sacrificed at that time and the liver, intestine, lung, heart, loin muscle, adipose tissue and ham muscle were removed.
# [2] = test system: cholesterol 7α-hydroxylase; test: Hepatic cholesterol 7α-hydroxylase activity in hypercholesterolemic swine; assay type: in vivo; details: control diet + 50 ppm
# Source text: as §1, §2, §3
# [3] = test system: hypercholesterolemic swine; test: Plasma thromboxane B2 and platelet factor 4 in hypercholesterolemic swine; assay type: in vivo; design: Platelet Factor 4: unit not given here; details: control diet + 50 ppm, 42 days
# Source text: as §1, §3
# This example was conducted to measure the serum levels of apolipoprotein (a)1, apolipoprotein B, triglycerides, glucose, insulin and glucagon and the plasma levels of thromboxane B2 and platelet factor 4 in the swine described in Example 15.
# [4] = test system: chickens; test: Antibody titers to sheep red blood cells in chickens; assay type: in vivo, chicken; details: 4 weeks; for IgG antibody titers in serum / IgM antibody titers in serum / Total Ab titers in serum: control diet + 50 ppm, sheep red blood cells i.p.
# Experimental: The model for this study was 6-week old female white leghorn chickens. Each group of 12 chickens was fed an unsupplemented chicken diet or a control diet supplemented with 50 ppm of a tocotrienol or 100 ppm of a commercially available hypercholesterolemic agent (Geraniol or Lovastatin). […] The chickens were fed over a period of 4 weeks, then the blood was drawn. The antibody response was determined by injecting the chickens i.p. with 0.5 ml of a 5% suspension of sheep red blood cells (RBCs) in PBS (v/v) which were previously washed three times. […] Relative IgG levels were determined by using 2-mercaptoethanol preincubation for 30 min. The relative IgM levels were calculated by subtracting the IgG antibody levels from total antibody levels. All antibody levels are expressed as the log base 2 of the highest titer that was needed to hemagglutinate an equal volume of 0.5% RBC suspension.
Structure (SMILES),HMG-CoA REDUCTASE ([1]; 21 days),"HMG-CoA REDUCTASE, percentage of 0-time value ([1]; 21 days) [%]",HMG-CoA REDUCTASE ([1]; 42 days),"HMG-CoA REDUCTASE, Percentage of Control Activity ([1]; 42 days) [%]","HMG-CoA REDUCTASE, percentage of 0-time value ([1]; 42 days) [%]","CHOLESTEROL 7α-HYDROXYLASE, percentage of baseline value ([2]; 21 days) [%]",Cholesterol 7α-hydroxylase ([2]; 21 days),"CHOLESTEROL 7α-HYDROXYLASE, Percentage of Control Activity ([2]; 42 days) [%]","CHOLESTEROL 7α-HYDROXYLASE, percentage of baseline value ([2]; 42 days) [%]",Cholesterol 7α-hydroxylase ([2]; 42 days),"Platelet Factor 4, percentage of control [3] [%]",Thromboxane B2 [3] [pg/100 ml],"Thromboxane B2, percentage of control [3] [%]",IgG antibody titers in serum [4] [Log 2],IgM antibody titers in serum [4] [Log 2],Total Ab titers in serum [4] [Log 2],Platelet Factor 4 [3],total antibody titer and IgM titer compared to the control (in words) ([4]; 50 ppm in diet)
"CC(C)=CCC/C(C)=C/CC/C(C)=C/CCC1(C)CCc2cc(O)ccc2O1 (centres unmarked) [P21, 3,4-dihydro-2-methyl-2-(4,8,12-trimethyltrideca-3' (E),7'(E),11'-trienyl)-2H-1-benzopyran-6-ol]",304.23 pg/min/mg of microsomes,89.38,275.75 pg/min/mg of microsomes,73.59,81.02,99.34,4.50 pg/min/mg of microsomes,98.38,102.21,4.63 pg/min/mg of microsomes,82.59,60.48,87.66,1.50 ± 1.18,7.17,8.67 ± 1.92,,
"CC(C)=CCC/C(C)=C/CC/C(C)=C/CCC1CCc2cc(O)ccc2O1 (centres unmarked) [P25, 3,4-dihydro-2-(4,8,12-trimethyltrideca-3'(E),7'(E),11'-trienyl)-2H-1-benzopyran-6-ol]",307.27 pg/min/mg of microsomes,87.58,269.43 pg/min/mg of microsomes,69.75,76.79,101.09,4.62 pg/min/mg of microsomes,98.58,102.41,4.68 pg/min/mg of microsomes,79.36,57.03,83.02,2.43 ± 1.40,8.92,10.30 ± 1.16,19.15,increased
"CC(C)=CCC/C(C)=C/CC/C(C)=C/CCC1(C)CCc2cc(O)c(C)c(C)c2O1 (centres unmarked) [γ-T3, γ-tocotrienol, reference compound]",300.72 pg/min/mg of microsomes,86.19,280.88 pg/min/mg of microsomes,73.31,80.71,100.89,4.53 pg/min/mg of microsomes,98.18,102.00,4.58 pg/min/mg of microsomes,85.28,62.54,92.25,1.28,5.83 ± 1.53,6.60 ± 1.51,,
